In patent publication US20140051679A1, “KINASE INHIBITORS AND METHOD OF TREATING CANCER WITH SAME” (UNIVERISTY HEALTH NETWORKS, priority 2011, published 2014) one finds GI50 and IC50 data, which are given here for 10 compounds.

The subject of assay [1] is OVCAR-3 ovarian cancer cells. The experiment in a line: Cell growth inhibition, Sulforhodamine B assay, OVCAR-3. The settings on record: Homo sapiens, 120 h, 5 days culture, SRB assay, read-out: Cell Line GI50 Range OVCAR-3. The class given is cell-based.
The test system of another assay is HT29 colon cancer cells. The experiment in a line: Cell growth inhibition, Sulforhodamine B assay, HT29. The class given is cell-based. The settings on record: Homo sapiens, HT-29, 120 h, 5 days culture, SRB assay, read-out: Cell Line GI50 Range HT29. In general terms: The SRB assay estimates cell density from bound dye.
Assay [2] concerns HCT116 colon cancer cells. The experiment in a line: Cell growth inhibition, Sulforhodamine B assay, HCT116. The settings on record: Homo sapiens, HCT-116, 120 h, 5 days culture, SRB assay, read-out: Cell Line GI50 Range HCT116. The class given is cell-based.
For assay [3], the system named is MDA-MB-468 breast cancer cells. The experiment in a line: Cell growth inhibition, Sulforhodamine B assay, MDA-MB-468. It counts as cell-based. The settings on record: Homo sapiens, 120 h, 5 days culture, SRB assay, read-out: Cell Line GI50 Range MDA-MB-468.
The next assay has as its target T1, human TTK (Homo sapiens, UniProt P33981).
T1 construct: amino terminal GST fusion of full length human TTK; purchased Invitrogen
T1 sequence (P33981 1-857): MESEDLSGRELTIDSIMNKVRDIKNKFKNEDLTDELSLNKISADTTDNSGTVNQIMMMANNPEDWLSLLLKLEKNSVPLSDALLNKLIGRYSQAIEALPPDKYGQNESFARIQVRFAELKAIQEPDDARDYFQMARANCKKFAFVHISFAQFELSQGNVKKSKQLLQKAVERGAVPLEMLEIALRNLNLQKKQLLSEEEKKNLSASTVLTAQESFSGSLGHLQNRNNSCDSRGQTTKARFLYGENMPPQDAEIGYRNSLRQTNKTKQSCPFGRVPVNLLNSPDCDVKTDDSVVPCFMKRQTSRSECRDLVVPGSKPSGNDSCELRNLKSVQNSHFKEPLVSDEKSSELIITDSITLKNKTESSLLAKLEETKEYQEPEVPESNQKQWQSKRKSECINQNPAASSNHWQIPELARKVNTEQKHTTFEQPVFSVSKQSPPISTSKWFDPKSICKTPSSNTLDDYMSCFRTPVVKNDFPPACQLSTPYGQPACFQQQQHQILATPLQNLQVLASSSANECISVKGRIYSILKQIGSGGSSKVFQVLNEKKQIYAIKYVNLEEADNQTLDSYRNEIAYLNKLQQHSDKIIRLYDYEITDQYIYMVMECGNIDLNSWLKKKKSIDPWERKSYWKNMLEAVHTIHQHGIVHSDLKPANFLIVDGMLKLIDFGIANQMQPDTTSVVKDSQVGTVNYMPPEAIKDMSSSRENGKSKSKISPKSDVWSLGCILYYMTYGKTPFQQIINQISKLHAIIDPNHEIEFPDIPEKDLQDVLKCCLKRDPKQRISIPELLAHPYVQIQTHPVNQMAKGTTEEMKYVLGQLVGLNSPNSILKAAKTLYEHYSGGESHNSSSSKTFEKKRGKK
As to the kind of experiment: TTK inhibition assay (indirect ELISA). It counts as biochemical. The settings on record: GST-TTK 0.68 nM, 16 μM ATP; read-out: IC50 Ranges TTK. Background: ELISA stands for enzyme-linked immunosorbent assay.

In assay [4] the test system is MDA-MB-231 breast cancer cells. The experiment in a line: Cell growth inhibition, Sulforhodamine B assay, MDA-MB-231. It counts as cell-based. The settings on record: Homo sapiens, 120 h, 5 days culture, SRB assay, read-out: Cell Line GI50 Range MDA-MB-231.
Method: (§1) Breast cancer cells (MDA-MB-231, MDA-MB-468), colon cancer cells (HCT116, HT29) and ovarian cancer cells (PA-1, OVCAR-3) were seeded (1000 to 4000 in 80 μl per well depending on the cell growth rate) into 96 well plates 24 hours before compound overlay. Compounds were prepared as 10 mM stock solutions in 100% DMSO which were diluted with DMEM (Dulbecco's Modified Eagle's Medium) cell growth Medium (Invitrogen, Burlington, ON, Canada) containing 10% FBS (Fetal Bovine Serum) to concentrations ranging from 50 nM to 250 μM. Aliquots (20 μl) from each concentration were overlaid to 80 μl of the pre-seeded cells in the 96 well plates to make final concentrations of 10 nM to 50 μM. The cells were cultured for 5 days before the Sulforhodamine B assay (SRB) was performed to determine the compound's cell growth inhibition activity.
(§2) Sulforhodamine B (purchased from Sigma, Oakville, ON, Canada) is a water-soluble dye that binds to the basic amino acids of the cellular proteins. Thus, colorimetric measurement of the bound dye provides an estimate of the total protein mass that is related to the cell number. the cells are fixed in situ by gently aspirating off the culture media and adding 50 μl ice cold 10% Trichloroacetic Acid (TCA) per well and incubate at 4° C. for 30-60 min, The plates are washed with water five times and allowed to air dry for 5 min. Addition of 50 μl 0.4% (w/v) SRB solution in 1% (v/v) acetic acid to each well and incubatation for 30 min at RT completes the staining reaction. Following staining, plates are washed four times with 1% acetic acid to remove unbound dye and then allowed to air dry for 5 min. The stain is solubilized with 100 μl of 10 mM Tris pH 10.5 per well. Absorbance is read at 570 nm.
(§3) The percentage (%) of relative growth inhibition was calculated by comparing to DMSO treated only cells (100%). […] The GI50 was calculated using GraphPad PRISM software (GraphPad Software, Inc., San Diego, Calif., USA).
A further assay addresses T2, Aurora B (Homo sapiens, UniProt Q96GD4).
T2 construct: purchased Invitrogen PV3970
As to the kind of experiment: Aurora B inhibition assay (Z-Lyte). The class given is biochemical. The settings on record: 28 nM Aurora B, 128 μM ATP; read-out: IC50 Ranges Aurora B. The protocol:
Aurora B inhibition was determined using the Z-Lyte assay kit from Invitrogen. The assay was performed using the recommended manufacturer's instructions with 128 μM ATP and 28 nM Aurora B (Invitrogen cat #PV3970). The % inhibition values were determined according to the manufacturer's directions and IC50 values were obtained using a non-linear 4 point logistic curve fit (XLfit4, IDBS)

In the next assay the target is T3, human PLK4 (Homo sapiens, UniProt O00444).
T3 construct: amino terminal GST fusion of residues 1-391 of human PLK4; made in house; host or cells: E. coli
T3 sequence (O00444 1-391): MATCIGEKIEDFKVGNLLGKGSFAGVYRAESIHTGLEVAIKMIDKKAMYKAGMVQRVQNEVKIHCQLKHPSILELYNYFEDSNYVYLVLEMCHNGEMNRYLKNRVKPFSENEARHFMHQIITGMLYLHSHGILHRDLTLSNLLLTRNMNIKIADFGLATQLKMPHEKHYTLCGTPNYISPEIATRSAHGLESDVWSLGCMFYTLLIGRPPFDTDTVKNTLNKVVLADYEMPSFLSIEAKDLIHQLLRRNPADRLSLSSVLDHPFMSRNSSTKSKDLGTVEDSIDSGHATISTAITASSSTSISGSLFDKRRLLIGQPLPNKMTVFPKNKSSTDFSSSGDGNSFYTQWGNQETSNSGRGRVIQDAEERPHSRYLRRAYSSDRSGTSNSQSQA
The experiment in a line: PLK4 inhibition assay (indirect ELISA). The class given is biochemical. The settings on record: GST-PLK4 4 nM, 15 μM ATP; read-out: IC50 Ranges PLK4. The method, boiled down: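 Dephosphorylated GST-tagged human PLK4 (residues 1-391, E. coli), 4 nM, preincubated 15 min with compound, then reacted 30 min with 15 μM ATP on MBP-coated plates (50 mM HEPES pH 7.5, 10 mM MgCl2, 0.01% Brij 35). Phospho-MBP detected by antibody ELISA at 450 nm. Tested at 10 μM or 10-point titrations; IC50 from 4-parameter logistic fit.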

Assay [5] concerns PA-1 ovarian cancer cells. As to the kind of experiment: Cell growth inhibition, Sulforhodamine B assay, PA-1. The class given is cell-based. The settings on record: 120 h, 5 days culture, SRB assay, read-out: Cell Line GI50 Range PA-1.
Method: as §1, §2, §3

T2 sequence (Q96GD4 whole entry): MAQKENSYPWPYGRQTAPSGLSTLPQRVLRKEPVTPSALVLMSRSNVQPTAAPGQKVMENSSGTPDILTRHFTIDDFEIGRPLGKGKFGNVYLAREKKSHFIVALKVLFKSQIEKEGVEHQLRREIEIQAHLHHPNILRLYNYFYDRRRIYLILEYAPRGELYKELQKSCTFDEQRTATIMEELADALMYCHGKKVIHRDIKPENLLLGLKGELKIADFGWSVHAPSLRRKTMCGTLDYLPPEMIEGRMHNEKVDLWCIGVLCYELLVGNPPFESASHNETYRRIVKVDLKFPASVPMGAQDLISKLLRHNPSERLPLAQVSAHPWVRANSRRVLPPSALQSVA

The term GI50 denotes the concentration at which growth is held to half of that of the control. A word on the IC50: it is the concentration at which inhibition is half-maximal. As for `CC(C)(O)C1CCN(c2ccc(-c3n[nH]c4ccc(C(=O)NC(c5ccccc5)C5CC5)cc34)cc2)CC1` (centres unmarked) [Example A112, N-(cyclopropyl(phenyl)methyl)-3-(4-(4-(2-hydroxypropan-2-yl)piperidin-1-yl)phenyl)-1H-indazole-5-carboxamide], the GI50 (in assay [1]; with HT29 colon cancer cells; in assay [2]; in assay [3]; in [4]; in assay [5]) was at most 5 µM throughout. The IC50 at human TTK, on Aurora B and on human PLK4 was at most 5 µM throughout.

`CN1CCN(C(=O)c2cccc(-c3n[nH]c4ccc(NC(=O)C(c5ccsc5)N5CCCC5)cc34)c2)CC1` (centres unmarked) [Example A96, N-(3-(3-(4-Methylpiperazine-1-carbonyl)phenyl)-1H-indazol-5-yl)-2-(pyrrolidin-1-yl)-2-(thiophen-3-yl)acetamide]: the GI50 (in [1]; in the assay on HT29 colon cancer cells; in assay [2]; in assay [3]; in [4]; in [5]) was 5 to 20 µM each time. Also, the half-inhibitory concentration (IC50) at human TTK is at most 5 µM; on Aurora B it was 5 to 50 µM; at human PLK4, at most 5 µM.

Consider `CN1CCOC(c2ccc(-c3n[nH]c4ccc(C(=O)NC(c5ccccc5)C5CC5)cc34)cc2)C1` (centres unmarked) [Example A139, N-(cyclopropyl(phenyl)methyl)-3-(4-(4-methylmorpholin-2-yl)phenyl)-1H-indazole-5-carboxamide], for which the GI50 (in assay [1]; in the assay on HT29 colon cancer cells; in assay [2]; in assay [3]; in assay [4]; in assay [5]) was at most 5 µM in each case. Moreover, the IC50 at human TTK, at Aurora B and at human PLK4 was at most 5 µM throughout.

Consider `CN1CCC(Oc2ccc(-c3n[nH]c4ccc(NC(=O)C5CCCc6ccccc65)cc34)cc2)CC1` (centres unmarked) [Example A18, N-(3-(4-((1-methylpiperidin-4-yl)oxy)phenyl)-1H-indazol-5-yl)-1,2,3,4-tetrahydronaphthalene-1-carboxamide], for which the GI50 (in assay [1]; in the assay on HT29 colon cancer cells; in assay [2]; in [3]; in [4]; in assay [5]) was at most 5 µM throughout. The IC50 on human TTK, on Aurora B and on human PLK4 was at most 5 µM in each case.

As for `COCCN1CCC(Oc2ccc(-c3n[nH]c4ccc(C(=O)NC(c5ccsc5)C5CCCC5)cc34)cc2)CC1` (centres unmarked) [Example A155, N-(cyclopentyl(thiophen-3-yl)methyl)-3-(4-((1-(2-methoxyethyl)piperidin-4-yl)oxy)phenyl)-1H-indazole-5-carboxamide], the GI50 (in [1]; in the assay with HT29 colon cancer cells; in assay [2]; in assay [3]; in assay [4]; in assay [5]) was at most 5 µM in each case. Moreover, the IC50 on human TTK, at Aurora B and on human PLK4 was at most 5 µM in each case.

Turning to `CN1CCC(Oc2ccc(-c3n[nH]c4ccc(C(=O)N[C@@H](CCO)c5ccccc5)cc34)cc2)CC1` [Example A125, (S)—N-(3-hydroxy-1-phenylpropyl)-3-(4-((1-methylpiperidin-4-yl)oxy)phenyl)-1H-indazole-5-carboxamide], the GI50 (in [1]; in the assay with HT29 colon cancer cells; in [2]; in [3]; in [4]; in [5]) was at most 5 µM throughout. For the same compound, the IC50 at human TTK, at Aurora B and on human PLK4 was at most 5 µM each time.

Take `Cc1ccccc1C(NC(=O)c1ccc2[nH]nc(-c3ccc(N4CC(O)C4)cc3)c2c1)C1CC1` (centres unmarked) [Example A141, N-(Cyclopropyl(o-tolyl)methyl)-3-(4-(3-hydroxyazetidin-1-yl)phenyl)-1H-indazole-5-carboxamide]: the GI50 (in assay [1]; with HT29 colon cancer cells; in assay [2]; in [3]; in assay [4]; in assay [5]) was at most 5 µM each time. The IC50 on human TTK and at human PLK4 was at most 5 µM throughout.

On to `COCCN1CCC(Oc2ccc(-c3n[nH]c4ccc(C(=O)N[C@H](COC)c5ccccc5)cc34)cc2)CC1` [Example A164, (S)—N-(2-methoxy-1-phenylethyl)-3-(4-((1-(2-methoxyethyl)piperidin-4-yl)oxy)phenyl)-1H-indazole-5-carboxamide], for which the 50% growth inhibitory concentration (GI50) (in [1]; with HT29 colon cancer cells; in assay [2]; in [3]; in assay [4]; in assay [5]) was at most 5 µM in each case. Besides, the half-maximal inhibitory concentration (IC50) on human TTK and on human PLK4 was at most 5 µM in each case.

For the compound `CO[C@@H](C(=O)Nc1ccc2[nH]nc(-c3ccc(O[C@@H]4CCN(C)C[C@@H]4F)cc3)c2c1)c1ccccc1` (relative stereo) [Example A135, (R)—N-(3-(4-(((3S,4R)-3-fluoro-1-methylpiperidin-4-yl)oxy)phenyl)-1H-indazol-5-yl)-2-methoxy-2-phenylacetamide], the GI50 (in assay [1]; with HT29 colon cancer cells; in assay [2]; in assay [3]; in assay [4]; in assay [5]) was at most 5 µM in each case. Also, the IC50 on human TTK and at human PLK4 was at most 5 µM in each case.

In the case of `COc1ccccc1C(C(=O)Nc1ccc2[nH]nc(-c3ccc(OC4CCN(C)CC4)cc3)c2c1)C1CCCC1` (centres unmarked) [Example A156, 2-cyclopentyl-2-(2-methoxyphenyl)-N-(3-(4-((1-methylpiperidin-4-yl)oxy)phenyl)-1H-indazol-5-yl)acetamide], the GI50 (in assay [1]; in the assay with HT29 colon cancer cells; in [2]; in assay [3]; in assay [4]; in [5]) was at most 5 µM throughout. Further, the IC50 at human TTK and at human PLK4 was at most 5 µM throughout.
